The structures appear in SMILES notation.

T1 sequence (P14902 whole entry): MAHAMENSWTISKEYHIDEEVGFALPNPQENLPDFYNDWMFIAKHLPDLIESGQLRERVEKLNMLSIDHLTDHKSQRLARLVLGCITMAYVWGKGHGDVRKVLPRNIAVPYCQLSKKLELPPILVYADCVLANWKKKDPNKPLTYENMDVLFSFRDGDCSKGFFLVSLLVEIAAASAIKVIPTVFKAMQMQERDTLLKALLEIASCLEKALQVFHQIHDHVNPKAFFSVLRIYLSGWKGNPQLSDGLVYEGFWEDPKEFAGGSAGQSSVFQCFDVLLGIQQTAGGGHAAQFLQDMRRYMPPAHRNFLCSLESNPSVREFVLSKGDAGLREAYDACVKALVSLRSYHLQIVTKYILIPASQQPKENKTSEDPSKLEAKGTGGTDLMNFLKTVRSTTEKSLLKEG

The first assay concerns the target T1, IDO (SKOV3 human ovarian adenocarcinoma cells, IFN-γ induced) (Homo sapiens, UniProt P14902).
T1 construct: IDO expression was induced in the SKOV3 cells by the addition of 500 ng/ml IFN-γ; endogenous in cells; host or cells: SKOV3 human ovarian adenocarcinoma cells, induced with IFN-γ
Description: SKOV3 Kynurenine cell based assay. Conditions: IDO induced by 500 ng/ml IFN-γ, 500 μM L-tryptophan, 48 hours. Summed up: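 IFN-γ (500 ng/ml) induced IDO in SKOV3 cells, seeded at 40,000/well in phenol red-free RPMI with 10% FCS, 2 mM L-glutamine and 500 μM L-tryptophan. Cells were incubated with or without compound at 37° C for 48 h. Supernatant kynurenine was detected with Ehrlich's reagent.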
As to `O=S(=O)(c1cccc(OC(F)(F)F)c1)N1CCC(c2c[nH]c3ccccc23)CC1` [Compound 57], the “SKOV3 Kynurenine cell based assay pIC50” value is “+ (+ = pIC50 4.00-4.99)”.

Take `Cc1ccc2[nH]cc(C3CCN(S(=O)(=O)c4ccc(C(C)(C)C)cc4)CC3)c2c1` [Compound 58]: the “SKOV3 Kynurenine cell based assay pIC50” value is listed as “+ (+ = pIC50 4.00-4.99)”.

With `Cc1cccc2c(C3CCN(C(=O)c4ccccc4OC(F)(F)F)CC3)c[nH]c12` [Compound 59], the “SKOV3 Kynurenine cell based assay pIC50” value is given as “+ (+ = pIC50 4.00-4.99)”.

As to `CCOC(=O)N1CCC(c2c[nH]c3ccccc23)CC1` [Compound 66], the “SKOV3 Kynurenine cell based assay pIC50” value is reported as “+ (+ = pIC50 4.00-4.99)”.

Regarding `O=C(CO)N1CCC(c2c[nH]c3ccccc23)CC1` [Compound 67], the “SKOV3 Kynurenine cell based assay pIC50” value was “+− (+− = pIC50 <4.00)”.

Turning to `CCNC(=O)N1CCC(c2c[nH]c3ccccc23)CC1` [Compound 68], the “SKOV3 Kynurenine cell based assay pIC50” value is given as “+− (+− = pIC50 <4.00)”.

For `CCCS(=O)(=O)N1CCC(c2c[nH]c3ccccc23)CC1` [Compound 69], the “SKOV3 Kynurenine cell based assay pIC50” value is given as “+− (+− = pIC50 <4.00)”.

On to `COc1ccc2[nH]cc(C3=CCN(C(C)=O)CC3)c2c1` [Compound 70], for which the “SKOV3 Kynurenine cell based assay pIC50” value is on record as “+− (+− = pIC50 <4.00)”.

For the molecule `O=C(C1CC1)N1CCC(c2c[nH]c3ccccc23)CC1` [Compound 71], the “SKOV3 Kynurenine cell based assay pIC50” value is “+− (+− = pIC50 <4.00)”.

For `CC(C)S(=O)(=O)N1CCC(c2c[nH]c3ccccc23)CC1` [Compound 73], the “SKOV3 Kynurenine cell based assay pIC50” value is on record as “+− (+− = pIC50 <4.00)”.

Take `COCCS(=O)(=O)N1CCC(c2c[nH]c3ccccc23)CC1` [Compound 74]: the “SKOV3 Kynurenine cell based assay pIC50” value is recorded as “+− (+− = pIC50 <4.00)”.

As to `O=S(=O)(C1CC1)N1CCC(c2c[nH]c3ccccc23)CC1` [Compound 75], the “SKOV3 Kynurenine cell based assay pIC50” value is on record as “+− (+− = pIC50 <4.00)”.

A further assay deals with Recombinant human IDO (Homo sapiens, UniProt P14902). Description: hIDO biochemical coupled assay. As to conditions: 45 μM L-tryptophan, coupled with kynurenine formamidase. Put shortly: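 Recombinant human IDO incubated in 50 mM KPO4 (pH 7.0), 0.5 mM EGTA, 0.5 mM EDTA, 0.05% Triton X100, 20 mM ascorbate, 10 μM methylene blue, 500 U/ml catalase and 50 μg/ml kynurenine formamidase. N-formylkynurenine converted to kynurenine, quantified by fluorescence after Ehrlich's reagent.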
Chain of Recombinant human IDO (P14902 whole entry): as above
Regarding `O=S(=O)(c1cccc(OC(F)(F)F)c1)N1CCC(c2c[nH]c3ccccc23)CC1` [Compound 57], the “hIDO biocehmical assay pIC50” value is recorded as “+− (+− = pIC50 <4.00)”.

Take `Cc1ccc2[nH]cc(C3CCN(S(=O)(=O)c4ccc(C(C)(C)C)cc4)CC3)c2c1` [Compound 58]: the “hIDO biocehmical assay pIC50” value is on record as “+− (+− = pIC50 <4.00)”.

Take `Cc1cccc2c(C3CCN(C(=O)c4ccccc4OC(F)(F)F)CC3)c[nH]c12` [Compound 59]: the “hIDO biocehmical assay pIC50” value is on record as “+− (+− = pIC50 <4.00)”.

For `CCOC(=O)N1CCC(c2c[nH]c3ccccc23)CC1` [Compound 66], the “hIDO biocehmical assay pIC50” value is given as “+− (+− = pIC50 <4.00)”.

As for `O=C(CO)N1CCC(c2c[nH]c3ccccc23)CC1` [Compound 67], the “hIDO biocehmical assay pIC50” value is on record as “+− (+− = pIC50 <4.00)”.

`CCNC(=O)N1CCC(c2c[nH]c3ccccc23)CC1` [Compound 68]: the “hIDO biocehmical assay pIC50” value is “+− (+− = pIC50 <4.00)”.

For the molecule `CCCS(=O)(=O)N1CCC(c2c[nH]c3ccccc23)CC1` [Compound 69], the “hIDO biocehmical assay pIC50” value was “+− (+− = pIC50 <4.00)”.

On to `COc1ccc2[nH]cc(C3=CCN(C(C)=O)CC3)c2c1` [Compound 70], for which the “hIDO biocehmical assay pIC50” value was “+− (+− = pIC50 <4.00)”.

With `O=C(C1CC1)N1CCC(c2c[nH]c3ccccc23)CC1` [Compound 71], the “hIDO biocehmical assay pIC50” value is given as “+− (+− = pIC50 <4.00)”.

As to `CC(C)S(=O)(=O)N1CCC(c2c[nH]c3ccccc23)CC1` [Compound 73], the “hIDO biocehmical assay pIC50” value is listed as “+− (+− = pIC50 <4.00)”.

On to `COCCS(=O)(=O)N1CCC(c2c[nH]c3ccccc23)CC1` [Compound 74], for which the “hIDO biocehmical assay pIC50” value is given as “+− (+− = pIC50 <4.00)”.

`O=S(=O)(C1CC1)N1CCC(c2c[nH]c3ccccc23)CC1` [Compound 75]: the “hIDO biocehmical assay pIC50” value is recorded as “+− (+− = pIC50 <4.00)”.

In the next assay the target is Recombinant human TDO (Homo sapiens, UniProt P48775). The assay can be described thus: hTDO biochemical coupled assay. Conditions: 330 μM L-tryptophan, coupled with kynurenine formamidase. Put shortly: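 Recombinant human TDO with 330 μM L-tryptophan in 50 mM KPO4 pH 7.0 containing EGTA, EDTA, Triton X100, ascorbate, methylene blue, catalase and kynurenine formamidase (KynB), 17 min at room temperature. Stopped with Ehrlich's reagent, 5 min, then kynurenine fluorescence read (Ex475, Em530).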
Chain of Recombinant human TDO (P48775 whole entry): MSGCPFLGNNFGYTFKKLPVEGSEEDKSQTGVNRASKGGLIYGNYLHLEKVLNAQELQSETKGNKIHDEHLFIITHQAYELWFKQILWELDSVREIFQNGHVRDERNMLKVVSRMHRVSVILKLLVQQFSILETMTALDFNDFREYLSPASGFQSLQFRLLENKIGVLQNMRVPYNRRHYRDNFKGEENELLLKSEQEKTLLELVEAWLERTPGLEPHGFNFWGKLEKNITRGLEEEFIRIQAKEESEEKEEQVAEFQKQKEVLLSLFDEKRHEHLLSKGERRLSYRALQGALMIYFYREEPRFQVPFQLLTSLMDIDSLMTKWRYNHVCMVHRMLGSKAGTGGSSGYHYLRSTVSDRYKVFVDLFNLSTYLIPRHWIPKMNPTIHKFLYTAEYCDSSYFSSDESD
Consider `O=S(=O)(c1cccc(OC(F)(F)F)c1)N1CCC(c2c[nH]c3ccccc23)CC1` [Compound 57], for which the “hTDO biochemical assay pIC50” value is on record as “+− (+− = pIC50 <4.00)”.

Take `Cc1ccc2[nH]cc(C3CCN(S(=O)(=O)c4ccc(C(C)(C)C)cc4)CC3)c2c1` [Compound 58]: the “hTDO biochemical assay pIC50” value is given as “+− (+− = pIC50 <4.00)”.

Regarding `Cc1cccc2c(C3CCN(C(=O)c4ccccc4OC(F)(F)F)CC3)c[nH]c12` [Compound 59], the “hTDO biochemical assay pIC50” value is on record as “+− (+− = pIC50 <4.00)”.

For the molecule `CCOC(=O)N1CCC(c2c[nH]c3ccccc23)CC1` [Compound 66], the “hTDO biochemical assay pIC50” value is recorded as “+− (+− = pIC50 <4.00)”.

Take `O=C(CO)N1CCC(c2c[nH]c3ccccc23)CC1` [Compound 67]: the “hTDO biochemical assay pIC50” value was “+− (+− = pIC50 <4.00)”.

Regarding `CCNC(=O)N1CCC(c2c[nH]c3ccccc23)CC1` [Compound 68], the “hTDO biochemical assay pIC50” value was “++ (++ = pIC50 5.00-5.99)”.

With `CCCS(=O)(=O)N1CCC(c2c[nH]c3ccccc23)CC1` [Compound 69], the “hTDO biochemical assay pIC50” value is “+ (+ = pIC50 4.00-4.99)”.

For `COc1ccc2[nH]cc(C3=CCN(C(C)=O)CC3)c2c1` [Compound 70], the “hTDO biochemical assay pIC50” value is reported as “+ (+ = pIC50 4.00-4.99)”.

Turning to `O=C(C1CC1)N1CCC(c2c[nH]c3ccccc23)CC1` [Compound 71], the “hTDO biochemical assay pIC50” value is reported as “+− (+− = pIC50 <4.00)”.

In the case of `CC(C)S(=O)(=O)N1CCC(c2c[nH]c3ccccc23)CC1` [Compound 73], the “hTDO biochemical assay pIC50” value is “+− (+− = pIC50 <4.00)”.

On to `COCCS(=O)(=O)N1CCC(c2c[nH]c3ccccc23)CC1` [Compound 74], for which the “hTDO biochemical assay pIC50” value is “+ (+ = pIC50 4.00-4.99)”.

In the case of `O=S(=O)(C1CC1)N1CCC(c2c[nH]c3ccccc23)CC1` [Compound 75], the “hTDO biochemical assay pIC50” value is given as “+ (+ = pIC50 4.00-4.99)”.

A further assay deals with T2, TDO (A172 human glioblastoma cells) (Homo sapiens, UniProt P48775).
T2 construct: This assay utilised cancer cells which expressed either TDO or IDO; endogenous in cells; host or cells: A172 human glioblastoma cells
T2 sequence (P48775 whole entry): as above
Description: A172 Kynurenine cell based assay. As to conditions: 500 μM L-tryptophan, 48 hours, kynurenine by Erhlich's reagent. Put shortly: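 A172 glioblastoma cells (30,000/well) cultured at 37° C. in phenol red-free RPMI with 10% FCS, 2 mM L-glutamine and 500 μM L-tryptophan, with or without test compound. After 48 hours, kynurenine in the supernatant was read with Erhlich's reagent (5 min) as absorbance at 490 nm.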
Regarding `O=S(=O)(c1cccc(OC(F)(F)F)c1)N1CCC(c2c[nH]c3ccccc23)CC1` [Compound 57], the “A172 Kynurenine cell based assay pIC50” value is given as “+ (+ = pIC50 4.00-4.99)”.

For the molecule `Cc1ccc2[nH]cc(C3CCN(S(=O)(=O)c4ccc(C(C)(C)C)cc4)CC3)c2c1` [Compound 58], the “A172 Kynurenine cell based assay pIC50” value was “+ (+ = pIC50 4.00-4.99)”.

On to `Cc1cccc2c(C3CCN(C(=O)c4ccccc4OC(F)(F)F)CC3)c[nH]c12` [Compound 59], for which the “A172 Kynurenine cell based assay pIC50” value is “+ (+ = pIC50 4.00-4.99)”.

As for `CCOC(=O)N1CCC(c2c[nH]c3ccccc23)CC1` [Compound 66], the “A172 Kynurenine cell based assay pIC50” value is recorded as “+ (+ = pIC50 4.00-4.99)”.

In the case of `O=C(CO)N1CCC(c2c[nH]c3ccccc23)CC1` [Compound 67], the “A172 Kynurenine cell based assay pIC50” value is “+ (+ = pIC50 4.00-4.99)”.

Take `CCNC(=O)N1CCC(c2c[nH]c3ccccc23)CC1` [Compound 68]: the “A172 Kynurenine cell based assay pIC50” value is “+ (+ = pIC50 4.00-4.99)”.

As for `CCCS(=O)(=O)N1CCC(c2c[nH]c3ccccc23)CC1` [Compound 69], the “A172 Kynurenine cell based assay pIC50” value is recorded as “++ (++ = pIC50 5.00-5.99)”.

As to `COc1ccc2[nH]cc(C3=CCN(C(C)=O)CC3)c2c1` [Compound 70], the “A172 Kynurenine cell based assay pIC50” value is on record as “+− (+− = pIC50 <4.00)”.

In the case of `O=C(C1CC1)N1CCC(c2c[nH]c3ccccc23)CC1` [Compound 71], the “A172 Kynurenine cell based assay pIC50” value is on record as “+ (+ = pIC50 4.00-4.99)”.

In the case of `CC(C)S(=O)(=O)N1CCC(c2c[nH]c3ccccc23)CC1` [Compound 73], the “A172 Kynurenine cell based assay pIC50” value was “+ (+ = pIC50 4.00-4.99)”.

With `COCCS(=O)(=O)N1CCC(c2c[nH]c3ccccc23)CC1` [Compound 74], the “A172 Kynurenine cell based assay pIC50” value is listed as “++ (++ = pIC50 5.00-5.99)”.

With `O=S(=O)(C1CC1)N1CCC(c2c[nH]c3ccccc23)CC1` [Compound 75], the “A172 Kynurenine cell based assay pIC50” value was “++ (++ = pIC50 5.00-5.99)”.
